Reference: ChEMBL document CHEMBL6114942, “(E)-3-(3-([1,1'-Biphenyl]-4-yl)-1-phenyl-1H-pyrazol-4-yl)-1-phenylprop-2-en-1-ones inducing reactive oxygen species generation through glutathione depletion” (Bioorg Med Chem Lett, 2025)
The source made the active and inactive calls. No cut-off for these calls is given here.

Key:
MIA PaCa-2 [1] = assay: Induction of reactive oxygen species generation in human MIA PaCa-2 cells assessed as ROS level at 50 uM measured after 12 hrs by DCF-DA staining based flow cytometry (reference value: 461.5 +/- 57.3); assay type: functional
MIA PaCa-2 [2] = assay: Induction of apoptosis in human MIA PaCa-2 cells assessed as early apoptotic cells at 100 uM measured after 24 hrs by Annexin-V-FITC/propidium iodide staining based flow cytometry (reference value: 13%); assay type: functional
MIA PaCa-2 [3] = assay: Induction of apoptosis in human MIA PaCa-2 cells assessed as viable cells at 100 uM measured after 48 hrs by Annexin-V-FITC/propidium iodide staining based flow cytometry (reference value: 71%); assay type: functional; conditions: read-out: Activity
MIA PaCa-2 [4] = assay: Induction of apoptosis in human MIA PaCa-2 cells assessed as necrotic cells at 100 uM measured after 24 hrs by Annexin-V-FITC/propidium iodide staining based flow cytometry (reference value: 9%); assay type: functional
MIA PaCa-2 [5] = assay: Induction of apoptosis in human MIA PaCa-2 cells assessed as late apoptotic cells at 100 uM measured after 48 hrs by Annexin-V-FITC/propidium iodide staining based flow cytometry (reference value: 3%); assay type: functional
MIA PaCa-2 [6] = assay: Induction of apoptosis in human MIA PaCa-2 cells assessed as late apoptotic cells at 100 uM measured after 24 hrs by Annexin-V-FITC/propidium iodide staining based flow cytometry (reference value: 4%); assay type: functional
MIA PaCa-2 [7] = assay: Induction of reactive oxygen species generation in human MIA PaCa-2 cells at 50 uM measured after 12 hrs by DCF-DA staining based phase-contrast fluorescence microscopy; assay type: functional, cell-based
MIA PaCa-2 [8] = assay: Induction of apoptosis in human MIA PaCa-2 cells assessed as late apoptotic cells at 50 uM measured after 24 hrs by Annexin-V-FITC/propidium iodide staining based flow cytometry (reference value: 4%); assay type: functional
MIA PaCa-2 [9] = assay: Induction of GSH depletion in human MIA PaCa-2 assessed as cell population with high GSH level at 50 uM measured after 18 hrs by VB-48/propidium iodide staining based flow cytometry (reference value: 95%); assay type: functional
[10] = Induction of GSH depletion in human Primary pancreatic epithelial cells assessed as cell population with high GSH level at 50 uM measured after 18 hrs by VB-48/propidium iodide staining based flow cytometry (reference value: 93%); assay type: toxicity
MIA PaCa-2 [11] = assay: Induction of apoptosis in human MIA PaCa-2 cells measured after 24 to 48 hrs by Annexin-V-FITC/propidium iodide staining based flow cytometry; assay type: functional, cell-based; conditions: dose 50-100 µM, time 24-48 hrs
MIA PaCa-2 [12] = assay: Induction of apoptosis in human MIA PaCa-2 cells assessed as necrotic cells at 100 uM measured after 48 hrs by Annexin-V-FITC/propidium iodide staining based flow cytometry (reference value: 11%); assay type: functional
MIA PaCa-2 [13] = assay: Induction of apoptosis in human MIA PaCa-2 cells assessed as necrotic cells at 50 uM measured after 48 hrs by Annexin-V-FITC/propidium iodide staining based flow cytometry (reference value: 11%); assay type: functional
MIA PaCa-2 [14] = assay: Induction of GSH depletion in human MIA PaCa-2 assessed as cell population with low GSH level at 50 uM measured after 18 hrs by VB-48/propidium iodide staining based flow cytometry (reference value: 5%); assay type: functional
MIA PaCa-2 [15] = assay: Induction of apoptosis in human MIA PaCa-2 cells assessed as early apoptotic cells at 50 uM measured after 48 hrs by Annexin-V-FITC/propidium iodide staining based flow cytometry (reference value: 15%); assay type: functional
MIA PaCa-2 [16] = assay: Induction of apoptosis in human MIA PaCa-2 cells assessed as necrotic cells at 50 uM measured after 24 hrs by Annexin-V-FITC/propidium iodide staining based flow cytometry (reference value: 9%); assay type: functional
[17] = Induction of GSH depletion in human Primary pancreatic epithelial cells assessed as cell population with low GSH level at 50 uM measured after 18 hrs by VB-48/propidium iodide staining based flow cytometry (reference value: 7%); assay type: toxicity
MIA PaCa-2 [18] = assay: Induction of apoptosis in human MIA PaCa-2 cells assessed as early apoptotic cells at 100 uM measured after 48 hrs by Annexin-V-FITC/propidium iodide staining based flow cytometry (reference value: 15%); assay type: functional
MIA PaCa-2 [19] = assay: Induction of apoptosis in human MIA PaCa-2 cells assessed as late apoptotic cells at 50 uM measured after 48 hrs by Annexin-V-FITC/propidium iodide staining based flow cytometry (reference value: 3%); assay type: functional
MIA PaCa-2 [20] = assay: Induction of apoptosis in human MIA PaCa-2 cells assessed as viable cells at 50 uM measured after 24 hrs by Annexin-V-FITC/propidium iodide staining based flow cytometry (reference value: 74%); assay type: functional; conditions: read-out: Activity
MIA PaCa-2 [21] = assay: Induction of apoptosis in human MIA PaCa-2 cells assessed as early apoptotic cells at 50 uM measured after 24 hrs by Annexin-V-FITC/propidium iodide staining based flow cytometry (reference value: 13%); assay type: functional
MIA PaCa-2 [22] = assay: Induction of apoptosis in human MIA PaCa-2 cells assessed as viable cells at 100 uM measured after 24 hrs by Annexin-V-FITC/propidium iodide staining based flow cytometry (reference value: 74%); assay type: functional; conditions: read-out: Activity
MIA PaCa-2 [23] = assay: Induction of apoptosis in human MIA PaCa-2 cells assessed as viable cells at 50 uM measured after 48 hrs by Annexin-V-FITC/propidium iodide staining based flow cytometry (reference value: 71%); assay type: functional; conditions: read-out: Activity
MIA PaCa-2 [24] = assay: Inhibition of GST activity in human MIA PaCa-2 cells at 50 uM using CDNB as substrate measured after 6 hrs by spectrophotometric method; assay type: cell-based

For `COc1cccc(C(=O)/C=C/c2cn(-c3ccccc3)nc2-c2ccc(-c3ccccc3)cc2)c1`, the Activity (MIA PaCa-2 [1]) was 680.

`O=C(/C=C/c1cn(-c2ccccc2)nc1-c1ccc(-c2ccccc2)cc1)c1cc(F)ccc1O` gave an Activity (MIA PaCa-2 [1]) of 540.

Work on `COc1ccccc1C(=O)/C=C/c1cn(-c2ccccc2)nc1-c1ccc(-c2ccccc2)cc1` yielded an Activity (MIA PaCa-2 [1]) of 619.5.

With `COc1cccc(C(=O)/C=C/c2cn(-c3ccc(F)cc3)nc2-c2ccc(-c3ccccc3)cc2)c1` the Activity (MIA PaCa-2 [1]) was 675.

`COc1ccc(-n2cc(/C=C/C(=O)c3ccccc3OC)c(-c3ccc(-c4ccccc4)cc3)n2)cc1` gave an Activity (MIA PaCa-2 [1]) of 535.5.

With `COc1ccc(-n2cc(/C=C/C(=O)c3cccc(OC)c3)c(-c3ccc(-c4ccccc4)cc3)n2)cc1` the Activity (MIA PaCa-2 [1]) was 720.5.

With `O=C(/C=C/c1cn(-c2ccccc2)nc1-c1ccc(-c2ccccc2)cc1)c1ccc(O)cc1` the Activity (MIA PaCa-2 [1]) was 639.

In the case of `COc1cccc(O)c1C(=O)/C=C/c1cn(-c2ccccc2)nc1-c1ccc(-c2ccccc2)cc1`, the Activity (MIA PaCa-2 [1]) is reported as 580.5.

`COc1ccc(C(=O)/C=C/c2cn(-c3ccc(F)cc3)nc2-c2ccc(-c3ccccc3)cc2)cc1OC` showed an Activity (MIA PaCa-2 [1]) of 534.5.

`O=C(/C=C/c1cn(-c2ccccc2)nc1-c1ccc(-c2ccccc2)cc1)c1cc(Cl)ccc1O` gave an Activity (MIA PaCa-2 [1]) of 661.

Work on `CC1=CC(=O)c2ccccc2C1=O` [MENADIONE] yielded an Activity (MIA PaCa-2 [1]) of 1160.5.

With `COc1ccc(C(=O)/C=C/c2cn(-c3ccc(F)cc3)nc2-c2ccc(-c3ccccc3)cc2)cc1` the Activity (MIA PaCa-2 [1]) was 529.5.

`COc1ccc(C(=O)/C=C/c2cn(-c3ccc(OC)cc3)nc2-c2ccc(-c3ccccc3)cc2)cc1` gave an Activity (MIA PaCa-2 [2]) of 60%, a viability at 100 µM (MIA PaCa-2 [3]) of 11% and an Activity (MIA PaCa-2 [4]) of 3%. It also gave an Activity (MIA PaCa-2 [1]) of 799.5, an Activity (MIA PaCa-2 [5]) of 11% and an Activity (MIA PaCa-2 [6]) of 6%. The Activity (MIA PaCa-2 [7]) was “Active; Most Effective Among The Tested Compounds”, the Activity (MIA PaCa-2 [8]) was 7% and the Activity (MIA PaCa-2 [9]) was 55%. For the same compound, the Activity [10] was 86%, the Activity (MIA PaCa-2 [11]) was “Dose-dependent-effect” and the Activity (MIA PaCa-2 [12]) was 4%. The Activity (MIA PaCa-2 [13]) was 5%, the Activity (MIA PaCa-2 [14]) was 44% and the Activity (MIA PaCa-2 [15]) was 65%. It also gave an Activity (MIA PaCa-2 [16]) of 6%, an Activity [17] of 14% and an Activity (MIA PaCa-2 [18]) of 74%. The Activity (MIA PaCa-2 [19]) was 8%, the viability at 50 µM (MIA PaCa-2 [20]) was 49% and the Activity (MIA PaCa-2 [21]) was 39%. The viability at 100 µM (MIA PaCa-2 [22]) was 30%, the viability at 50 µM (MIA PaCa-2 [23]) was 22% and the inhibition (MIA PaCa-2 [24]) was “Active”.
